Experimental data reported in patent publication US10513521B2, “Compositions and methods for inhibiting BMP” (The Brigham and Women's Hospital, Inc., priority 2014, dated 2019).
pIC50: −log10 of the molar value. Where a name gives a salt, the structure may show the parent alone.

Experiments:
[1] = biological target: ALK1 (Homo sapiens, UniProt P37023); assay: TR-FRET enzymatic ALK kinase assay, ALK1
Description: (§1) Briefly, the ALKs enzymatic assay was initiated by dispense 2.5 μl enzyme in 1× kinase reaction buffer. The assay plate was then added with compounds followed by incubation at room temperature for 10 minutes. Then 2.5 μl/well substrate was added.

[2] = biological target: T1, ALK2 (Homo sapiens, UniProt Q04771); assay: TR-FRET enzymatic ALK kinase assay, ALK2
T1 sequence (Q04771 21-509): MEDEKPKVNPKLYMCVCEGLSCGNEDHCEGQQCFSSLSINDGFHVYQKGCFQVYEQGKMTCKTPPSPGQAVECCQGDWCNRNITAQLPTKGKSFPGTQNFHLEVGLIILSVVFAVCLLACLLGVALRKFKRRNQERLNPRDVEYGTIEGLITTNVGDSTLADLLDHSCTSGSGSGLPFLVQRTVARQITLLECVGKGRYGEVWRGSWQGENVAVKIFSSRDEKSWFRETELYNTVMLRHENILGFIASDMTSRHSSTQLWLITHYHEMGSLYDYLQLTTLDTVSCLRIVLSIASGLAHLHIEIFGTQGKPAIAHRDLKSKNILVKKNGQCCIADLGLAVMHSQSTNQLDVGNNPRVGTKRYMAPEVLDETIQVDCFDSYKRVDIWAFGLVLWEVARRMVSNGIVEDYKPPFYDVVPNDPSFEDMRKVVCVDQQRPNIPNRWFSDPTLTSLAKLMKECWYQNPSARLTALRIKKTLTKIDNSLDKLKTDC
Description: as §1

[3] = biological target: ALK3 (Homo sapiens, UniProt P36894); assay: TR-FRET enzymatic ALK kinase assay, ALK3
Description: as §1

[4] = biological target: T2, ALK4 (Homo sapiens, UniProt P36896); assay: TR-FRET enzymatic ALK kinase assay, ALK4
T2 sequence (P36896 24-505): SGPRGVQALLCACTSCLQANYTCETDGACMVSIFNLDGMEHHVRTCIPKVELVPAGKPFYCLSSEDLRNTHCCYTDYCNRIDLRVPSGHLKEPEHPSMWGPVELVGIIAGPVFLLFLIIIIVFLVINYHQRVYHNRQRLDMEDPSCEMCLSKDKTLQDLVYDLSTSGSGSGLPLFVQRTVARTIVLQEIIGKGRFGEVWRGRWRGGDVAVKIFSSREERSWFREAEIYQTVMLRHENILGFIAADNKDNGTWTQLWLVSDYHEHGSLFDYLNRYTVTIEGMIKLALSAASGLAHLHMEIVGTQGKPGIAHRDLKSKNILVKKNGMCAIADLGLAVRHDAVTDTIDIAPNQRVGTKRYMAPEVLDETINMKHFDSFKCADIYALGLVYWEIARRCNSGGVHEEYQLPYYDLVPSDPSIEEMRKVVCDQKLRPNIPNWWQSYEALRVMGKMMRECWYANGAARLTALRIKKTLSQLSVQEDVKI
Description: as §1

[5] = biological target: T3, ALK5 (Homo sapiens, UniProt P36897); assay: TR-FRET enzymatic ALK kinase assay, ALK5
T3 sequence (P36897 34-503): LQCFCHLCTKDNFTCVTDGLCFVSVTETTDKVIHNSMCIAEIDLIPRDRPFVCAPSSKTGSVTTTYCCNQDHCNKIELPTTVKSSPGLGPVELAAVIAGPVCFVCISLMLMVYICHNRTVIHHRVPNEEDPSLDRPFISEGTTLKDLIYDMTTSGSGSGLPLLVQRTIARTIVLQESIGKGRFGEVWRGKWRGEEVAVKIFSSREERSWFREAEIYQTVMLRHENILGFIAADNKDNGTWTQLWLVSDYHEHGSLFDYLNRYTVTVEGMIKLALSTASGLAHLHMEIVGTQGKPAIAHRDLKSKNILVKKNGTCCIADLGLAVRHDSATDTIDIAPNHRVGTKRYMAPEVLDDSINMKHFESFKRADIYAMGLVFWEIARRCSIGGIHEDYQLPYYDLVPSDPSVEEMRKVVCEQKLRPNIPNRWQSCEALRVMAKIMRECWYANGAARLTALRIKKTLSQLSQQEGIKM
Description: Six ALK kinase enzyme assays were developed for determination of compound activities on ALK1, ALK2, ALK3, ALK4, ALK5 and ALK6.
as §1

[6] = biological target: ALK6 (Homo sapiens, UniProt O00238); assay: TR-FRET enzymatic ALK kinase assay, ALK6
Chain of ALK6 (O00238 14-502): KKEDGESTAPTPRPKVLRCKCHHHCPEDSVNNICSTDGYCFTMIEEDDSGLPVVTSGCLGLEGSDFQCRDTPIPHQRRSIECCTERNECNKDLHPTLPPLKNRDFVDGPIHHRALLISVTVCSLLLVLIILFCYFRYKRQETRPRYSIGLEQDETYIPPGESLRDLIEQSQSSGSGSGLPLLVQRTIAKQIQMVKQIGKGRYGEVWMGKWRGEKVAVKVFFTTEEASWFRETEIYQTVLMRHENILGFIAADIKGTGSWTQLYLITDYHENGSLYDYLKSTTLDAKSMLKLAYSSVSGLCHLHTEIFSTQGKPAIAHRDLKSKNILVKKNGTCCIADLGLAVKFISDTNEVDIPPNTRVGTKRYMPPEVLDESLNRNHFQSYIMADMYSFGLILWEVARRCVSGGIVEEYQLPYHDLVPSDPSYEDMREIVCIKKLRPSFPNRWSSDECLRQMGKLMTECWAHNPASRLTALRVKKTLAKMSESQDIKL
Description: as §1

Chain of ALK1 (P37023 22-503): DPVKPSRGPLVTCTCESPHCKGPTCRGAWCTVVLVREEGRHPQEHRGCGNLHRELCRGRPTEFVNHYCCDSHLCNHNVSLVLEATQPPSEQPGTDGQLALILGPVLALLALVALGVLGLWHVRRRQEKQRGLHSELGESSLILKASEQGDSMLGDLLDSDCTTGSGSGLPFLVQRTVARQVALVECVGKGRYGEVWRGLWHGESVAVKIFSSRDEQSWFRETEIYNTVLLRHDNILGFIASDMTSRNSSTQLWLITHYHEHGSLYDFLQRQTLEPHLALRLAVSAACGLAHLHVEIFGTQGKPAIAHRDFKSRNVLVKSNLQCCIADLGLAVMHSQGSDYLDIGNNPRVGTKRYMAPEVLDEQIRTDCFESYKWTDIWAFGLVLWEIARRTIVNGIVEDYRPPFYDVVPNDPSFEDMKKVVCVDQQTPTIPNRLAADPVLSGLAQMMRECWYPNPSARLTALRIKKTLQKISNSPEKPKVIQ
Chain of ALK3 (P36894 24-532): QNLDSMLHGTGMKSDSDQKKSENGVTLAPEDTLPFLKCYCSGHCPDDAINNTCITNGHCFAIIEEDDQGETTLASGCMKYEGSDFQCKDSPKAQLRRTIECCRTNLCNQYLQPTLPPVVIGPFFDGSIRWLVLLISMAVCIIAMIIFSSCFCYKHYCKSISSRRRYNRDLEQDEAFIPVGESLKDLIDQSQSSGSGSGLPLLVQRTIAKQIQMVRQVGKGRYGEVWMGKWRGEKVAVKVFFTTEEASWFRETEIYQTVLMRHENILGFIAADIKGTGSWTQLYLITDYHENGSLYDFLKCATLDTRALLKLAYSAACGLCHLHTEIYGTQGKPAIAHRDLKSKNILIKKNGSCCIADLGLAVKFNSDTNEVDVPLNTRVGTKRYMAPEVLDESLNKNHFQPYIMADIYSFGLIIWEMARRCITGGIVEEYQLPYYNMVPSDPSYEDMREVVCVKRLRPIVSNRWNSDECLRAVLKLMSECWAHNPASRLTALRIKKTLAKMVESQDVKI

| Structure (SMILES) | pIC50 [1] | pIC50 [2] | pIC50 [3] | pIC50 [4] | pIC50 [5] | pIC50 [6] | activity in the higher ATP concentrations (concentration-response curves) ([1]; ALK1, in the presence of 10, 100, or 1,000 µM ATP, FIG. 3) | activity in the higher ATP concentrations (concentration-response curves) ([2]; ALK2, in the presence of 10, 100, or 1,000 µM ATP, FIG. 3) |
| --- | --- | --- | --- | --- | --- | --- | --- | --- |
| CC(=O)c1ccc(-c2cnn3cc(-c4ccc(N5[C@H](C)CNC[C@@H]5C)cc4)cnc23)c2ccccc12 [Compound 27, 1-(4-(6-(4-((2R,6S)-2,6-dimethylpiperazin-1-yl)phenyl)pyrazolo[1,5-a]pyrimidin-3-yl)naphthalen-1-yl)ethanone] | 6.96 | 7.72 | 6.65 | 5.39 | 4.87 | 6.21 | – | – |
| C[C@@H]1CNC[C@H](C)N1c1ccc(-c2cnc3c(-c4cccc5c(-c6nn[nH]n6)cccc45)cnn3c2)cc1 [Compound 28, 3-(5-(1H-tetrazol-5-yl)naphthalen-1-yl)-6-(4-((2R,6S)-2,6-dimethylpiperazin-1-yl)phenyl)pyrazolo[1,5-a]pyrimidine] | 6.88 | 7.64 | 6.77 | – | – | 6.95 | – | – |
| CC(O)c1ccc(-c2cnn3cc(-c4ccc(N5[C@H](C)CNC[C@@H]5C)cc4)cnc23)c2ccccc12 (stereo partly drawn) [Compound 29, 1-(4-(6-(4-((2R,6S)-2,6-dimethylpiperazin-1-yl)phenyl)pyrazolo[1,5-a]pyrimidin-3-yl)naphthalen-1-yl)ethanol] | 7.70 | 7.85 | 7.08 | 5.45 | 5.27 | 6.53 | – | – |
| C[C@@H]1CNC[C@H](C)N1c1ccc(-c2cnc3c(-c4ccc(C(=O)C(F)(F)F)c5ccccc45)cnn3c2)cc1 [Compound 30, 1-(4-(6-(4-((2R,6S)-2,6-dimethylpiperazin-1-yl)phenyl)pyrazolo[1,5-a]pyrimidin-3-yl)naphthalen-1-yl)-2,2,2-trifluoroethanone] | 6.52 | 6.69 | 5.79 | 5.10 | 4.64 | 5.62 | – | – |
| C[C@@H]1CNC[C@H](C)N1c1ccc(-c2cnc3c(-c4cccc5ccccc45)cnn3c2)cc1 [Compound 31, 6-(4-((2R,6S)-2,6-dimethylpiperazin-1-yl)phenyl)-3-(naphthalen-1-yl)pyrazolo[1,5-a]pyrimidine] | 7.29 | 7.77 | 6.57 | 5.18 | 4.22 | 5.97 | – | – |
| CC(O)c1cccc2c(-c3cnn4cc(-c5ccc(N6[C@H](C)CNC[C@@H]6C)cc5)cnc34)cccc12 (stereo partly drawn) [Compound 33, 1-(5-(6-(4-((2R,6S)-2,6-dimethylpiperazin-1-yl)phenyl)pyrazolo[1,5-a]pyrimidin-3-yl)naphthalen-1-yl)ethanol] | 5.82 | 6.44 | 5.11 | 4.79 | 4.39 | 4.79 | – | – |
| COc1ccc2ccccc2c1-c1cnn2cc(-c3ccc(N4[C@H](C)CNC[C@@H]4C)cc3)cnc12 [Compound 34, 6-(4-((2R,6S)-2,6-dimethylpiperazin-1-yl)phenyl)-3-(2-methoxynaphthalen-1-yl)pyrazolo[1,5-a]pyrimidine] | 5.88 | 6.60 | 5.31 | 4.90 | 4.73 | 4.76 | – | – |
| Cc1cc(S(N)(=O)=O)ccc1-c1cnn2cc(-c3ccc(N4[C@H](C)CNC[C@@H]4C)cc3)cnc12 [Compound 36, 4-(6-(4-((2R,6S)-2,6-dimethylpiperazin-1-yl)phenyl)pyrazolo[1,5-a]pyrimidin-3-yl)-3-methylbenzenesulfonamide] | 5.02 | 5.52 | – | – | – | – | – | – |
| Cc1cc(-c2cnn3cc(-c4ccc(N5[C@H](C)CNC[C@@H]5C)cc4)cnc23)ccc1S(N)(=O)=O [Compound 37, 4-(6-(4-((2R,6S)-2,6-dimethylpiperazin-1-yl)phenyl)pyrazolo[1,5-a]pyrimidin-3-yl)-2-methylbenzenesulfonamide] | 6.09 | – | – | – | – | – | – | – |
| C[C@@H]1CNC[C@H](C)N1c1ccc(-c2cnc3c(-c4ccc(S(N)(=O)=O)cc4)cnn3c2)cc1 [Compound 38, 4-(6-(4-((2R,6S)-2,6-dimethylpiperazin-1-yl)phenyl)pyrazolo[1,5-a]pyrimidin-3-yl)benzenesulfonamide] | 5.75 | – | – | – | – | – | – | – |
| C[C@@H]1CNC[C@H](C)N1c1ccc(-c2cnc3c(-c4cccc5c(S(=O)(=O)N(C)C)cccc45)cnn3c2)cc1 [Compound 40, 5-(6-(4-((2R,6S)-2,6-dimethylpiperazin-1-yl)phenyl)pyrazolo[1,5-a]pyrimidin-3-yl)-N,N-dimethylnaphthalene-1-sulfonamide] | < 5.00 | 5.49 | < 5.00 | < 5.00 | < 5.00 | < 5.00 | – | – |
| CC1CCN(c2ccc(-c3cnc4c(-c5ccc(S(N)(=O)=O)c6ccccc56)cnn4c3)cn2)CC1 [Compound 47, 4-(6-(6-(4-methylpiperidin-1-yl)pyridin-3-yl)pyrazolo[1,5-a]pyrimidin-3-yl)naphthalene-1-sulfonamide] | 5.24 | 5.54 | < 5.00 | < 5.00 | < 5.00 | < 5.00 | – | – |
| C[C@@H]1CNC[C@H](C)N1c1ccc(-c2cnc3c(-c4ccc(F)c(-c5nnn[nH]5)c4)cnn3c2)cc1 [Compound 72, 6-(4-((2R,6S)-2,6-dimethylpiperazin-1-yl)phenyl)-3-(4-fluoro-3-(1H-tetrazol-5-yl)phenyl)pyrazolo[1,5-a]pyrimidine] | 6.92 | 7.80 | 6.66 | < 5.00 | < 5.00 | 6.48 | – | – |
| CS(=O)(=O)c1cccc(-c2cnn3cc(-c4ccc(CC5CCNCC5)cc4)cnc23)c1 [Compound 126, 3-(3-(methylsulfonyl)phenyl)-6-(4-(piperidin-4-ylmethyl)phenyl)pyrazolo[1,5-a]pyrimidine. TFA] | 6.05 | 6.55 | < 5.00 | < 5.00 | < 5.00 | < 5.00 | – | – |
| CC(O)c1cccc(-c2cnn3cc(-c4ccc(C(F)(F)CN5CCCCC5)cc4)cnc23)c1 (centres unmarked) [Compound 127, 1-(3-(6-(4-(1,1-difluoro-2-(piperidin-1-yl)ethyl)phenyl)pyrazolo[1,5-a]pyrimidin-3-yl)phenyl)ethanol] | 5.32 | 5.77 | < 5.00 | < 5.00 | < 5.00 | < 5.00 | – | – |
| CS(=O)(=O)c1cccc(-c2cnn3cc(-c4ccc(CCN5CCCC5)cc4)cnc23)c1 [Compound 128, 3-(3-(methylsulfonyl)phenyl)-6-(4-(2-(pyrrolidin-1-yl)ethyl)phenyl)pyrazolo[1,5-a]pyrimidine] | 6.41 | 7.10 | 5.20 | < 5.00 | < 5.00 | < 5.00 | – | – |
| CC(N)c1ccc(-c2cnc3c(-c4ccc(S(N)(=O)=O)c5ccccc45)cnn3c2)cc1 (centres unmarked) [Compound 189, 4-(6-(4-(1-aminoethyl)phenyl)pyrazolo[1,5-a]pyrimidin-3-yl)naphthalene-1-sulfonamide] | 6.46 | – | – | < 5.00 | < 5.00 | < 5.00 | – | – |
| c1ccc2c(-c3cnn4cc(-c5ccc(N6CCNCC6)cc5)cnc34)ccnc2c1 [Compound A, reference compound] | – | – | – | – | – | – | reduced | reduced |
